According to article PMC10916743 (RSC Advances, 2024):
Where “and” joins values, the source holds several entries; their conditions need not be identical. Identical values can stand only once.

How the values were obtained:
[1] = tested on: MCF-7 cell line; experiment: MTT cytotoxicity assay, MCF-7; type: cell-based; details: for IC50: Homo sapiens, MCF7, read-out: IC50 MCF-7; for Selectivity index: fold more toxic in MCF-7 than in VERO cells: VERO IC50 / MCF-7 IC50
[2] = molecular target: EGFR^T790M (Homo sapiens, UniProt P00533, T790M); experiment: In vitro EGFR^T790M kinase inhibitory assay; type: biochemical; details: HTRF kinase assay, mean ± SD of three separate experiments
EGFR^T790M, sequence (P00533 25-1210 T790M): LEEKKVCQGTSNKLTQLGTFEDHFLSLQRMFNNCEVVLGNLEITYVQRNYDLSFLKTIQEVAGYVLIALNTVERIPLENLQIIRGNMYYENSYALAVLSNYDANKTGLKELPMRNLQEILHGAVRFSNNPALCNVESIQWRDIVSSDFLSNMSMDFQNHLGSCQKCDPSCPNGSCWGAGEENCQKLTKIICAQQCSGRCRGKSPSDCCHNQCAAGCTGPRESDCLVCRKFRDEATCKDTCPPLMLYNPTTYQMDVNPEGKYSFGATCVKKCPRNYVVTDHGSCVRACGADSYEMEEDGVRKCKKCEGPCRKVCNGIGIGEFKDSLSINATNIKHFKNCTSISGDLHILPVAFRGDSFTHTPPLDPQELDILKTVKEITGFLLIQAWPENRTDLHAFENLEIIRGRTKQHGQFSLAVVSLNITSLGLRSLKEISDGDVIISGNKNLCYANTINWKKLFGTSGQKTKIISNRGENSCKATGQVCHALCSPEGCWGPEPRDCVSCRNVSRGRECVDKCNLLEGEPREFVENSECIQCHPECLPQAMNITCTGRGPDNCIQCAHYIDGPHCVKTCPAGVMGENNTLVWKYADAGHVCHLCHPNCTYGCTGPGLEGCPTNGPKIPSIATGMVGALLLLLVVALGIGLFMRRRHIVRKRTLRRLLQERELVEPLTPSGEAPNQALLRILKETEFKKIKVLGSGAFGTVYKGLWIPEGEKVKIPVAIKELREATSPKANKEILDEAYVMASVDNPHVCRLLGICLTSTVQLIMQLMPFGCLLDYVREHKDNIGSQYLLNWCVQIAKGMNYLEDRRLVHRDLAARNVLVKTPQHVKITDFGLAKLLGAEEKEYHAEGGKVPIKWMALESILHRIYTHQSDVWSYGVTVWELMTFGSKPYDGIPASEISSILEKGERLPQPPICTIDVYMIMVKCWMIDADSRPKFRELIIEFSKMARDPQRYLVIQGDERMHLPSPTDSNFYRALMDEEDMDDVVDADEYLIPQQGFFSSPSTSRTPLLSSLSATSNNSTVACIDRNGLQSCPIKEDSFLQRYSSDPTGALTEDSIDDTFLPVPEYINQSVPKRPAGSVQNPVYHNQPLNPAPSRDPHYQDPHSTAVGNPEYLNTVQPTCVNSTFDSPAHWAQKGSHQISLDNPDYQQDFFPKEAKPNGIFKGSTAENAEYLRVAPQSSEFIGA

[3] = molecular target: EGFR^WT (Homo sapiens, UniProt P00533); experiment: In vitro EGFR^WT kinase inhibitory assay; type: biochemical; details: mean ± SD of three separate experiments
EGFR^WT, sequence (P00533 25-1210): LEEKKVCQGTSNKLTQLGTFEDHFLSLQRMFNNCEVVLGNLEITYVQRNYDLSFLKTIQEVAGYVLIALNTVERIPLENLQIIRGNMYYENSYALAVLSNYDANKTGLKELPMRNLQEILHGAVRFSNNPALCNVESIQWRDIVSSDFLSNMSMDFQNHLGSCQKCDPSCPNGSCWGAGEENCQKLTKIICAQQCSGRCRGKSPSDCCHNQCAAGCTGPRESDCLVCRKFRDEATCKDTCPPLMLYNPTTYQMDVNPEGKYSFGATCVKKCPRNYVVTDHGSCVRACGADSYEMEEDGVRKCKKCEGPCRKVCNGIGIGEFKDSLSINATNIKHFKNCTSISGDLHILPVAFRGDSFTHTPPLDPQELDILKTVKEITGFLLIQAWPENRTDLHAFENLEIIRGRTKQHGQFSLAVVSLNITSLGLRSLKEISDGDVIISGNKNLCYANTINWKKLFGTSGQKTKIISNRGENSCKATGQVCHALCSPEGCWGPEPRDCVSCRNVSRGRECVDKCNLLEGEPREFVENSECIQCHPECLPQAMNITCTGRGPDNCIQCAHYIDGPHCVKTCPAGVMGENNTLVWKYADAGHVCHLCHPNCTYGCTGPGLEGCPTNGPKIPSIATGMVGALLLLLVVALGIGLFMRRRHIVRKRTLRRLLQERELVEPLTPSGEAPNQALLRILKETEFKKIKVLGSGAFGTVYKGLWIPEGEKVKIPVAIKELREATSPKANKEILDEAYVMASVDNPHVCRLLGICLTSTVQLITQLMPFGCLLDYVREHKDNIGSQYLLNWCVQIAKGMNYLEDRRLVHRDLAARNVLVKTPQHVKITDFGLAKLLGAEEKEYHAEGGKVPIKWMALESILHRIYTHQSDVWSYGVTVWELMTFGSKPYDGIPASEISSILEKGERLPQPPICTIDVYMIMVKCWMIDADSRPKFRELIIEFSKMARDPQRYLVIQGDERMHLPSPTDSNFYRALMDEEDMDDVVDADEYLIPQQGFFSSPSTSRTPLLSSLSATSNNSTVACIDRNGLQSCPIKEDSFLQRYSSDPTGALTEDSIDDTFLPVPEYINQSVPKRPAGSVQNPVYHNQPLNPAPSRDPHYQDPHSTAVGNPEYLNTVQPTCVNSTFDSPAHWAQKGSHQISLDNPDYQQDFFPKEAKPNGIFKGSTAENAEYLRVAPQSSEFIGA

[4] = tested on: A549 cell line; experiment: MTT cytotoxicity assay, A549; type: cell-based; details: for IC50: Homo sapiens, A549, read-out: IC50 A549; for Selectivity index: fold more toxicity in A549 than in VERO cells: VERO IC50 / A549 IC50
[5] = tested on: HepG2 cell line; experiment: MTT cytotoxicity assay, HepG2; type: cell-based; details: for IC50: Homo sapiens, HepG2, read-out: IC50 HepG2; for Selectivity index: fold more toxic against HepG2 than VERO cells: VERO IC50 / HepG2 IC50
[6] = tested on: HCT116 cell line; experiment: MTT cytotoxicity assay, HCT116; type: cell-based; details: for IC50: Homo sapiens, HCT-116, read-out: IC50 HCT116; for Selectivity index: fold grander lethalness in HCT116 than in VERO cells: VERO IC50 / HCT116 IC50

Row | Structure (SMILES) | IC50 [1] | IC50 [2] | IC50 [3] | IC50 [4] | IC50 [5] | IC50 [6] | Selectivity index: fold more toxic in MCF-7 than in VERO cells [1] | Selectivity index: fold more toxicity in A549 than in VERO cells [4] | Selectivity index: fold more toxic against HepG2 than VERO cells [5] | Selectivity index: fold grander lethalness in HCT116 than in VERO cells [6]
1 | C=CCn1c(=O)n(CC(=O)Nc2ccc(C(=O)NC)cc2)c(=O)c2cc(I)ccc21 [Compound 5a, 4-{2-[1-Allyl-6-iodo-2,4-dioxo-1,4-dihydroquinazolin-3(2H)-yl]acetamido}-N-methylbenzamide] | 13.2 ± 1 µM | 1.62 ± 0.2 µM | 1.32 ± 0.25 µM | 10.6 ± 1.5 µM | 15 ± 1.5 µM | 13.4 ± 1.5 µM |  |  |  | 
2 | C=CCn1c(=O)n(CC(=O)Nc2ccc(C(=O)NCC)cc2)c(=O)c2cc(I)ccc21 [Compound 5b, 4-{2-[1-Allyl-6-iodo-2,4-dioxo-1,4-dihydroquinazolin-3(2H)-yl]acetamido}-N-ethylbenzamide] | 11.3 ± 1.1 µM | 1.33 ± 0.1 µM | 1 ± 0.15 µM | 9.5 ± 1.5 µM | 12.5 ± 1 µM | 11 ± 1.3 µM |  |  |  | 
3 | C=CCn1c(=O)n(CC(=O)Nc2ccc(C(=O)OC)cc2)c(=O)c2cc(I)ccc21 [Compound 6a, Methyl 4-{2-[1-allyl-6-iodo-2,4-dioxo-1,4-dihydroquinazolin-3(2H)-yl]acetamido}benzoate] | 12.2 ± 1.7 µM | 1.54 ± 0.5 µM | 1.15 ± 0.25 µM | 10.4 ± 1.5 µM | 13 ± 1.4 µM | 12.1 ± 1.5 µM |  |  |  | 
4 | C=CCn1c(=O)n(CC(=O)Nc2ccc(C(=O)OCC)cc2)c(=O)c2cc(I)ccc21 [Compound 6b, Ethyl 4-{2-[1-allyl-6-iodo-2,4-dioxo-1,4-dihydroquinazolin-3(2H)-yl]acetamido}benzoate] | 11 ± 1.6 µM | 1.12 ± 0.5 µM | 0.95 ± 0.35 µM | 9.39 ± 1.5 µM | 11.6 ± 1.8 µM | 9.79 ± 1.8 µM |  |  |  | 
5 | C=CCn1c(=O)n(CC(=O)Nc2ccc(C(=O)NN)cc2)c(=O)c2cc(I)ccc21 [Compound 7, 2-[1-Allyl-6-iodo-2,4-dioxo-1,4-dihydroquinazolin-3(2H)-yl]-N-[4-(hydrazinecarbonyl)phenyl]acetamide] | 15.2 ± 1.9 µM | 1.9 ± 0.5 µM | 1.5 ± 0.15 µM | 12.2 ± 1.5 µM | 16.5 ± 1.6 µM | 15.2 ± 1.7 µM |  |  |  | 
6 | C=CCn1c(=O)n(CC(=O)Nc2ccc(-c3nnc(S)o3)cc2)c(=O)c2cc(I)ccc21 [Compound 8, 2-(1-Allyl-6-iodo-2,4-dioxo-1,4-dihydroquinazolin-3(2H)-yl)-N-(4-(5-mercapto-1,3,4-oxadiazol-2-yl)phenyl)acetamide] | 10.8 ± 1.8 µM | 0.96 ± 0.5 µM | 0.88 ± 0.35 µM | 9 ± 1.5 µM | 11.2 ± 1.9 µM | 9.31 ± 1.8 µM |  |  |  | 
7 | C=CCn1c(=O)n(CC(=O)Nc2ccc(-c3nnc(C)o3)cc2)c(=O)c2cc(I)ccc21 [Compound 9, 2-[1-Allyl-6-iodo-2,4-dioxo-1,4-dihydroquinazolin-3(2H)-yl]-N-[4-(5-methyl-1,3,4-oxadiazol-2-yl)phenyl]acetamide] | 10.4 ± 1.7 µM | 0.89 ± 0.5 µM | 0.8 ± 0.25 µM | 7.06 ± 1.5 µM | 11 ± 1.4 µM | 8.62 ± 1.5 µM |  |  |  | 
8 | C=CCn1c(=O)n(CC(=O)Nc2ccc(-n3nc(C)cc3C)cc2)c(=O)c2cc(I)ccc21 [Compound 10, 2-[1-Allyl-6-iodo-2,4-dioxo-1,4-dihydroquinazolin-3(2H)-yl]-N-[4-(3,5-dimethyl-1H-pyrazol-1-yl)phenyl]acetamide] | 7.85 ± 0.9 µM | 0.54 ± 0.5 µM | 0.38 ± 0.35 µM | 6.9 ± 1.5 µM | 7.35 ± 1 µM | 6.96 ± 1.1 µM | 5.53 fold | 6.30 fold | 5.91 fold | 6.24 fold
9 | CNC(=O)c1ccc(NC(=O)Cn2c(=O)c3cc(I)ccc3n(Cc3ccccc3)c2=O)cc1 [Compound 13, 4-{2-[1-Benzyl-6-iodo-2,4-dioxo-1,4-dihydroquinazolin-3(2H)-yl]acetamido}-N-methylbenzamide] | 8.25 ± 1.1 µM | 0.61 ± 0.1 µM | 0.5 ± 0.15 µM | 7.1 ± 1.1 µM | 8 ± 1.3 µM | 7.36 ± 1.1 µM | 5.68 fold | 6.60 fold | 5.86 fold | 6.37 fold
10 | COC(=O)c1ccc(NC(=O)Cn2c(=O)c3cc(I)ccc3n(Cc3ccccc3)c2=O)cc1 [Compound 14a, Methyl 4-{2-[1-benzyl-6-iodo-2,4-dioxo-1,4-dihydroquinazolin-3(2H)-yl]acetamido}benzoate] | 8.35 ± 1.5 µM | 0.75 ± 0.5 µM | 0.6 ± 0.35 µM | 7.87 ± 1.1 µM | 9 ± 1.2 µM | 8.5 ± 1.1 µM | 6.01 fold | 6.38 fold | 5.58 fold | 5.91 fold
11 | CCOC(=O)c1ccc(NC(=O)Cn2c(=O)c3cc(I)ccc3n(Cc3ccccc3)c2=O)cc1 [Compound 14b, Ethyl 4-{2-[1-benzyl-6-iodo-2,4-dioxo-1,4-dihydroquinazolin-3(2H)-yl]acetamido}benzoate] | 7.03 ± 1.1 µM | 0.36 ± 0.1 µM | 0.25 ± 0.35 µM | 5.77 ± 1.3 µM | 5.86 ± 1 µM | 6.15 ± 1.5 µM | 6.99 fold | 8.52 fold | 8.39 fold | 7.99 fold
12 | NNC(=O)c1ccc(NC(=O)Cn2c(=O)c3cc(I)ccc3n(Cc3ccccc3)c2=O)cc1 [Compound 15, 2-[1-Benzyl-6-iodo-2,4-dioxo-1,4-dihydroquinazolin-3(2H)-yl]-N-[4-(hydrazinecarbonyl)phenyl]acetamide] | 8.8 ± 1 µM | 0.8 ± 0.1 µM | 0.65 ± 0.15 µM | 8.18 ± 1 µM | 9.5 ± 1 µM | 8.95 ± 1 µM | 5.92 fold | 6.37 fold | 5.49 fold | 5.82 fold
13 | O=C(Cn1c(=O)c2cc(I)ccc2n(Cc2ccccc2)c1=O)Nc1ccc(-c2nnc(S)o2)cc1 [Compound 16, 2-[1-Benzyl-6-iodo-2,4-dioxo-1,4-dihydroquinazolin-3(2H)-yl]-N-[4-(5-mercapto-1,3,4-oxadiazol-2-yl)phenyl]acetamide] | 7.36 ± 1 µM | 0.4 µM and 0.43 µM | 0.33 ± 0.25 µM | 6.2 ± 1 µM | 6.54 ± 1 µM | 6.67 ± 1 µM | 5.95 fold | 7.06 fold | 6.69 fold | 6.56 fold
14 | Cc1nnc(-c2ccc(NC(=O)Cn3c(=O)c4cc(I)ccc4n(Cc4ccccc4)c3=O)cc2)o1 [Compound 17, 2-[1-Benzyl-6-iodo-2,4-dioxo-1,4-dihydroquinazolin-3(2H)-yl]-N-[4-(5-methyl-1,3,4-oxadiazol-2-yl)phenyl]acetamide] | 6.85 ± 0.9 µM | 0.3 ± 0.5 µM | 0.15 ± 0.35 µM | 5.11 ± 1.1 µM | 5.55 ± 0.7 µM | 5.4 ± 1.5 µM | 6.73 fold |  | 8.31 fold | 
15 | Cc1cc(C)n(-c2ccc(NC(=O)Cn3c(=O)c4cc(I)ccc4n(Cc4ccccc4)c3=O)cc2)n1 [Compound 18, 2-[1-Benzyl-6-iodo-2,4-dioxo-1,4-dihydroquinazolin-3(2H)-yl]-N-[4-(3,5-dimethyl-1H-pyrazol-1-yl)phenyl]acetamide] | 6.46 ± 0.9 µM | 0.25 ± 0.5 µM | 0.17 ± 0.35 µM | 5.24 ± 1.1 µM | 5.25 ± 0.7 µM | 5.68 ± 1.5 µM | 7.04 fold |  | 8.67 fold | 
